Laboratory results taken from paper PMC11979273, “A phase I study to evaluate the safety, tolerability, and pharmacokinetics of HEC113995PA·H2O, a novel dual-acting serotonergic antidepressant, in healthy subjects” (Frontiers in Pharmacology, 2025).

Experiments:
[1] = Food effect study, safety (adverse events); type: in vivo, human
Description: A total of 18 healthy subjects of both genders, were assigned randomly to three sequences A, B, and C (n = 6). All subjects received HEC113995PA·H2O tablets, with a total of 3 times administered during the trial, once per cycle, and a washout period of ≥11 days. In sequence A, the order of administration was as follows: fasting, after a standard meal, and after a high-fat meal. In sequence B, the order of administration was after a standard meal, after a high-fat meal, and fasting. Sequence C subjects were administered in the following order: after a high-fat meal, fasting, and after a standard meal. During the fed periods, a single oral dose of HEC113995PA·H2O tablet 20 mg was administered within 30 min after consumption of a standard meal (total calories: approximately 600 kcal), or a high-fat, high-calorie meal (total calories: approximately 800 kcal–1,000 kcal, which derives about 150, 250, and 500–600 kcal from protein, carbohydrate, and fat, respectively). Serial blood samples were collected before and after each cycle for PK determination of plasma concentration and the evaluation of pharmacokinetic characteristics. Safety and tolerability were assessed on days 4 and 28.
Safety indicators were assessed through adverse events (AE), clinical laboratory tests (including blood routine, blood biochemistry, urine routine), vital signs monitoring (ear temperature), pulse, respiration and blood pressure in a sitting position), 12-lead electrocardiogram (ECG) and physical examinations. Adverse events (AE) and serious adverse events (SAE) were evaluated following the criteria outlined in National Cancer Institute Common Terminology Criteria for Adverse Events (NCI-CTCAE) version 5.0.
Any adverse events that occurred in all subjects during the clinical trial were recorded with the following details: AE name, occurrence time, end time, severity, whether it was classified as a SAE, severity criteria (if applicable), treatment measures and outcomes, actions taken on investigational drug due to the AE, and the causal relationship between the AE and administrated drug, etc. Each AE was recorded separately.

Hygroscopicity = type: physicochemical; settings: solid
[2] = FE trial 20 mg, 1 case, after a high-fat meal
[3] = FE trial 20 mg, after a high-fat meal
[4] = FE trial 20 mg, after a high-fat meal, 5 incidents
[5] = FE trial 20 mg, after a standard meal
[6] = FE trial 20 mg, fasting conditions
[7] = FE trial 20 mg, overall, 2 cases

Cc1nc(-c2cnc(N3CCN(CCCc4c[nH]c5ccc(C#N)cc45)CC3)nc2)sc1C(N)=O [HEC113995PA·H2O]
safety and tolerability ([1]; 20 mg fasting, after a standard meal and after a high-fat meal): good safety and tolerability | TRAE incidence: elevated blood bilirubin [1, 2]: 5.6% | TRAE incidence: elevated conjugated bilirubin [1, 2]: 5.6% | TRAE: elevated blood triglycerides [1, 3]: 1 case | TRAE: elevated blood uric acid [1, 3]: 2 cases | TRAE: nausea [1, 3]: 1 case | TEAE incidence [1, 4]: 27.8% | TRAE incidence [1, 4]: 27.8% | TRAE: elevated blood uric acid [1, 5]: 2 cases | TRAE: nausea [1, 5]: 1 case | TRAE incidence ([1]; FE trial 20 mg, after a standard meal, 3 incidents): 16.7% | TEAE incidence ([1]; FE trial 20 mg, after a standard meal, 4 incidents): 22.2% | TEAE incidents ([1]; FE trial 20 mg, fasting administration): 6 incidents | TRAE incidence ([1]; FE trial 20 mg, fasting administration, 4 incidents): 22.2% | TRAE: elevated blood triglycerides [1, 6]: 1 case | TRAE: elevated blood uric acid [1, 6]: 1 case | TRAE: nausea [1, 6]: 2 cases | TRAE incidence: elevated blood triglycerides [1, 7]: 11.1% | TRAE incidence: nausea [1, 7]: 11.1% | TRAE incidence: elevated blood uric acid ([1]; FE trial 20 mg, overall, 4 cases): 22.2% | incidence of subjects experiencing TRAEs ([1]; FE trial 20 mg, overall, 9 subjects, 13 TRAEs): 50.0% | incidence of subjects experiencing TEAE ([1]; FE trial 20 mg, overall, 11 subjects, 20 incidents): 61.1% | severity of all TRAEs ([1]; FE trial 20 mg, resolved spontaneously without treatment): Grade 1 | hygroscopicity (Hygroscopicity): slight hygroscopicity
